According to PMC10836395, “Investigation of how gate residues in the main channel affect the catalytic activity of Scytalidium thermophilum catalase” (Acta Crystallographica. Section D, Structural Biology, 2024):
Positions count from the first letter of the chain named. Names and notes keep the numbering of the source. Marks after values point to notes of the source that are not given here.

Tests used:
CATPO T188I variant [1] = target: T1, CATPO T188I variant (Scytalidium thermophilum (Humicola insolens), UniProt M4GGR5, T207I); assay type: biochemical
CATPO T188D variant [2] = target: T2, CATPO T188D variant (Scytalidium thermophilum (Humicola insolens), UniProt M4GGR5, T207D); assay type: biochemical
CATPO E484A variant [3] = target: T3, CATPO E484A variant (Scytalidium thermophilum (Humicola insolens), UniProt M4GGR5, E503A); experiment: Substrate-specificity analysis of the phenol oxidase activity; assay type: biochemical
CATPO E484I variant [4] = target: T4, CATPO E484I variant (Scytalidium thermophilum (Humicola insolens), UniProt M4GGR5, E503I); assay type: biochemical
CATPO E484D variant [5] = target: T5, CATPO E484D variant (Scytalidium thermophilum (Humicola insolens), UniProt M4GGR5, E503D); assay type: biochemical
CATPO T188F variant [6] = target: T6, CATPO T188F variant (Scytalidium thermophilum (Humicola insolens), UniProt M4GGR5, T207F); assay type: biochemical
CATPO T188A variant [7] = target: T7, CATPO T188A variant (Scytalidium thermophilum (Humicola insolens), UniProt M4GGR5, T207A); assay type: biochemical
CATPO [8] = target: T8, CATPO (Scytalidium thermophilum (Humicola insolens), UniProt M4GGR5); experiment: Substrate-specificity analysis of the phenol oxidase activity; assay type: biochemical
CATPO T188A variant [9] = target: T7, CATPO T188A variant; experiment: biochemical; conditions: catechol oxidation by T188A; read-out: K i
CATPO E484D variant [10] = target: T5, CATPO E484D variant; experiment: biochemical; conditions: catechol oxidation by E484D; read-out: K i
CATPO T188D variant [11] = target: T2, CATPO T188D variant; experiment: biochemical; conditions: catechol oxidation by T188D; read-out: K i
CATPO E484A variant [12] = target: T3, CATPO E484A variant; experiment: biochemical; conditions: catechol oxidation by E484A; read-out: K i
CATPO [13] = target: T8, CATPO; experiment: Inhibition of catechol oxidation; assay type: biochemical
CATPO T188F variant [14] = target: T6, CATPO T188F variant; experiment: biochemical; conditions: catechol oxidation by T188F; read-out: K i
CATPO T188I variant [15] = target: T1, CATPO T188I variant; experiment: biochemical; conditions: catechol oxidation by T188I; read-out: K i
CATPO E484I variant [16] = target: T4, CATPO E484I variant; experiment: biochemical; conditions: catechol oxidation by E484I; read-out: K i
[17] = substrate: Oc1ccccc1O; experiment: Phenol oxidase activity (H2O2-independent) measured spectrophotometrically by product formation at pH 7.0, 60 C, Michaelis-Menten fit.; assay type: biochemical
Experimental: (§1) All inhibition assays were performed in triplicate.

[18] = substrate: CC(C)(C)c1ccc(O)c(O)c1; experiment: Spectrophotometric phenol oxidase assay without H2O2 at pH 7.0 and 60 °C, initial rates fitted to the Michaelis-Menten equation.; assay type: biochemical
Experimental: as §1

[19] = substrate: Cc1ccc(O)c(O)c1; experiment: as above; assay type: biochemical
Experimental: as §1

[20] = substrate: Oc1ccc(O)cc1; experiment: as above; assay type: biochemical
Experimental: as §1

[21] = substrate: CCn1c(=NN=c2sc3cc(S(=O)(=O)O)ccc3n2CC)sc2cc(S(=O)(=O)O)ccc21; experiment: purified protein, by the assay type; conditions: 60.0 °C

T4 sequence (M4GGR5 entry or part of it E503I): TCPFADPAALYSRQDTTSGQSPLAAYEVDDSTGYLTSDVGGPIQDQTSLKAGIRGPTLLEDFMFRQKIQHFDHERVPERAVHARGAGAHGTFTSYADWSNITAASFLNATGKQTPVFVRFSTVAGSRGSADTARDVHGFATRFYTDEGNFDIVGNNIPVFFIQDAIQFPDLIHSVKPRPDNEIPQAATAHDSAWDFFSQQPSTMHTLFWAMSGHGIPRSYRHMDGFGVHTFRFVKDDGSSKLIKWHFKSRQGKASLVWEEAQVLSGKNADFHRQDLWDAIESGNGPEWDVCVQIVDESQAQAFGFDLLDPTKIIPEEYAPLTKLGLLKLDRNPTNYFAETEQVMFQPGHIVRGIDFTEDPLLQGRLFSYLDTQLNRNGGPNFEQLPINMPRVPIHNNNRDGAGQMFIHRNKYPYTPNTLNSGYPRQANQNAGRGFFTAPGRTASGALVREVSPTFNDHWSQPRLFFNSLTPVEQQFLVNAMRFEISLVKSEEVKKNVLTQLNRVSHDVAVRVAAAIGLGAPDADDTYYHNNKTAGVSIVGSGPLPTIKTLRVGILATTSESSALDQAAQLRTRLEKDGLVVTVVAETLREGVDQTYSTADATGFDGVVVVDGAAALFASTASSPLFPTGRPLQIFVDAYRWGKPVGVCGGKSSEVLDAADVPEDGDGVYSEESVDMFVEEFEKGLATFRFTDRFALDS
T1 sequence (M4GGR5 entry or part of it T207I): as the sequence (M4GGR5 entry or part of it E503I) above
T3 sequence (M4GGR5 entry or part of it E503A): as the sequence (M4GGR5 entry or part of it E503I) above
T8 sequence (M4GGR5 entry or part of it): as the sequence (M4GGR5 entry or part of it E503I) above
T2 sequence (M4GGR5 entry or part of it T207D): as the sequence (M4GGR5 entry or part of it E503I) above
T5 sequence (M4GGR5 entry or part of it E503D): as the sequence (M4GGR5 entry or part of it E503I) above
T6 sequence (M4GGR5 entry or part of it T207F): as the sequence (M4GGR5 entry or part of it E503I) above
T7 sequence (M4GGR5 entry or part of it T207A): as the sequence (M4GGR5 entry or part of it E503I) above

For `Oc1ccccc1O` [Catechol, catechol], the V max (CATPO T188I variant [1]) was 65000 ± 1100 mM/min, the “k cat/K m” value (CATPO T188I variant [1]) was 9200 ± 45 s^−1 M^−1 (×10^2) and the K m (CATPO T188I variant [1]; pH 7.0 (ABTS pH 5.0), 60°C) was 31 ± 0.5 mM. For the same molecule, the V max (CATPO T188D variant [2]) was 40000 ± 4000 mM/min, the “k cat/K m” value (CATPO T188D variant [2]) was 8900 ± 70 s^−1 M^−1 (×10^2) and the K m (CATPO T188D variant [2]; pH 7.0 (ABTS pH 5.0), 60°C) was 25 ± 1.5 mM. For the same molecule, the V max (CATPO E484A variant [3]) was 88000 ± 880 mM/min, the “k cat/K m” value (CATPO E484A variant [3]) was 14500 ± 130 s^−1 M^−1 (×10^2) and the K m (CATPO E484A variant [3]; pH 7.0 (ABTS pH 5.0), 60°C) was 30 ± 1.0 mM. For the same molecule, the V max (CATPO E484I variant [4]) was 50000 ± 1988 mM/min, the “k cat/K m” value (CATPO E484I variant [4]) was 8800 ± 72 s^−1 M^−1 (×10^2) and the K m (CATPO E484I variant [4]; pH 7.0 (ABTS pH 5.0), 60°C) was 30 ± 1.0 mM. The V max (CATPO E484D variant [5]) was 23000 ± 1500 mM/min, the “k cat/K m” value (CATPO E484D variant [5]) was 2100 ± 105 s^−1 M^−1 (×10^2) and the K m (CATPO E484D variant [5]; pH 7.0 (ABTS pH 5.0), 60°C) was 35 ± 0.5 mM. For the same molecule, the V max (CATPO T188F variant [6]) was 70000 ± 1290 mM/min, the “k cat/K m” value (CATPO T188F variant [6]) was 10200 ± 220 s^−1 M^−1 (×10^2) and the K m (CATPO T188F variant [6]; pH 7.0 (ABTS pH 5.0), 60°C) was 30 ± 1.0 mM. The V max (CATPO T188A variant [7]) was 22500 ± 1000 mM/min, the “k cat/K m” value (CATPO T188A variant [7]) was 2000 ± 120 s^−1 M^−1 (×10^2) and the K m (CATPO T188A variant [7]; pH 7.0 (ABTS pH 5.0), 60°C) was 33 ± 0.5 mM. The V max (CATPO [8]) was 25000 ± 763 mM/min, the “k cat/K m” value (CATPO [8]) was 2200 ± 130 s^−1 M^−1 (×10^2) and the K m (CATPO [8]; pH 7.0 (ABTS pH 5.0), 60°C) was 33 ± 0.5 mM.

`[N-]=[N+]=[N-].[Na+]` [Sodium azide, sodium azide] was tested, and the Ki (CATPO T188A variant [9]) was 42 ± 1.4 mM, the Ki (CATPO E484D variant [10]) was 41 ± 4.1 mM and the Ki (CATPO T188D variant [11]) was 55 ± 5 mM. The Ki (CATPO E484A variant [12]) was 74 ± 4.8 mM, the inhibition type (CATPO [13]; catechol oxidase activity of wild-type CATPO, Lineweaver–Burk) was “competitive” and the Ki (CATPO [13]; catechol oxidation by CATPO, catechol 1 to 100 mM, read-out: K i) was 42 ± 1.2 mM. The Ki (CATPO T188F variant [14]) was 62 ± 2.5 mM, the Ki (CATPO T188I variant [15]) was 60 ± 6 mM and the Ki (CATPO E484I variant [16]) was 56 ± 1.6 mM.

B1: T188F (Mycothermus thermophilus; T207F) (protein)
chain: TCPFADPAALYSRQDTTSGQSPLAAYEVDDSTGYLTSDVGGPIQDQTSLKAGIRGPTLLEDFMFRQKIQHFDHERVPERAVHARGAGAHGTFTSYADWSNITAASFLNATGKQTPVFVRFSTVAGSRGSADTARDVHGFATRFYTDEGNFDIVGNNIPVFFIQDAIQFPDLIHSVKPRPDNEIPQAAFAHDSAWDFFSQQPSTMHTLFWAMSGHGIPRSYRHMDGFGVHTFRFVKDDGSSKLIKWHFKSRQGKASLVWEEAQVLSGKNADFHRQDLWDAIESGNGPEWDVCVQIVDESQAQAFGFDLLDPTKIIPEEYAPLTKLGLLKLDRNPTNYFAETEQVMFQPGHIVRGIDFTEDPLLQGRLFSYLDTQLNRNGGPNFEQLPINMPRVPIHNNNRDGAGQMFIHRNKYPYTPNTLNSGYPRQANQNAGRGFFTAPGRTASGALVREVSPTFNDHWSQPRLFFNSLTPVEQQFLVNAMRFEISLVKSEEVKKNVLTQLNRVSHDVAVRVAAAIGLGAPDADDTYYHNNKTAGVSIVGSGPLPTIKTLRVGILATTSESSALDQAAQLRTRLEKDGLVVTVVAETLREGVDQTYSTADATGFDGVVVVDGAAALFASTASSPLFPTGRPLQIFVDAYRWGKPVGVCGGKSSEVLDAADVPEDGDGVYSEESVDMFVEEFEKGLATFRFTDRFALDS
notes: recombinant, pET-28-TEV-CATPO; contains heme b; Rz 0.8
B1 gave a Km [17] of 30 ± 1.0 mM, a kcat [17] of 30600 ± 1800 s⁻¹ and a kcat/Km [17] of 1.02e+06 ± 22000 M⁻¹ s⁻¹. For the same molecule, the Km [18] was 34 ± 0.4 mM, the Km [19] was 32 ± 1.0 mM and the Km [20] was 42 ± 1.0 mM. For the same molecule, the Km [21] was 45 ± 0.5 mM.

B2: E484D (Mycothermus thermophilus; E503D) (protein)
chain: B1 chain with F188T, E484D
notes: recombinant, pET-28-TEV-CATPO; contains heme d; Rz 0.8
For B2, the Km [17] was 35 ± 0.5 mM, the kcat [17] was 7400 ± 296 s⁻¹ and the kcat/Km [17] was 210000 ± 10500 M⁻¹ s⁻¹. For the same molecule, the Km [18] was 38 ± 0.5 mM, the Km [19] was 36 ± 0.1 mM and the Km [20] was 46 ± 0.8 mM. The Km [21] was 53 ± 1.0 mM.

B3: E484A (Mycothermus thermophilus; E503A) (protein)
chain: B1 chain with F188T, E484A
notes: as for B1
With B3 the Km [17] was 30 ± 1.0 mM, the kcat/Km [17] was 1.45e+06 ± 13000 M⁻¹ s⁻¹ and the Km [18] was 33 ± 0.5 mM. It also gave a Km [19] of 33 ± 1.0 mM, a Km [20] of 43 ± 1.2 mM and a Km [21] of 46 ± 1.0 mM.
